Here are results for one compound from paper PMC8952293, “A Histone Deacetylase (HDAC) Inhibitor with Pleiotropic In Vitro Anti-Toxoplasma and Anti-Plasmodium Activities Controls Acute and Chronic Toxoplasma Infection in Mice” (International Journal of Molecular Sciences, 2022).

The structures appear in SMILES notation.

Data set [1] has as its system P. berghei hepatic infection. Briefly: In vitro P. berghei hepatic infection of Huh7 cells (bioluminescence). The format is cell-based. To be noted: Plasmodium berghei, Huh-7. As for the experimental part: Huh7 cells, a human hepatic cell line employed in the assessment of drug activity against the hepatic stage of P. berghei infection, were cultured in RPMI 1640 supplemented with 10% (v/v) fetal bovine serum, 1% (v/v) penicillin/streptomycin, 1% (v/v) glutamine, 1% (v/v) nonessential amino acids, and 10 mM N-2-hydroxyethylpiperazine-N′-2-ethanesulfonic acid (HEPES) at 37 °C and 5% CO2. For infection, Huh7 cells were seeded in 96-well plates at 1 × 10^4 cells/well.
Liver stage. The action of JF363 against the liver stage of P. berghei infection was assessed by bioluminescence, as previously described. Briefly, one day before infection, Huh7 cells were seeded in 96-well plates. JF363 stock solution was prepared in dimethyl sulfoxide (DMSO) and serially diluted in infection medium (culture medium supplemented with 50 µg/mL of gentamicin and 0.8 µg/mL of fungizone) to obtain the test concentrations (1, 10, 25, 50, […], 500 nM). […] At 46 h post-infection, the impact of the compound on cell viability was assessed by the AlamarBlue assay (Invitrogen, Carlsbad, CA, USA), following the manufacturer’s instructions. Following the manufacturer’s instructions, the drug’s effect on the parasite load was next evaluated using the Firefly Luciferase Assay Kit 2.0 (Biotium, Fremont, CA, USA). […]

Data set [2] has as its system T. gondii type I RH strain. Briefly: Acute toxoplasmosis survival study in CD1 mice. As to conditions: for mouse survival, by day: once a day for 7 days, untreated infected mice succumbed by day 9. The format is in vivo, mouse. As for the experimental part:
To determine the in vivo anti-Toxoplasma effect of the molecule JF363 during the acute phase of infection, we analyzed the survival rate of non-inbred CD1 mice infected by the type I RH strain treated for […]. […] All untreated and infected mice succumbed by day 9 (Figure 3).
Non-inbred CD1a mice (Janvier Labs, Le Genest-Saint-Isle, France) were intraperitoneally infected with 100 tachyzoites of RH YFP strain in […] of PBS. Six hours post-infection and then once a day for 7 days, mice were treated per os with either 40 or 160 mg/kg of JF363 prepared in corn oil/5% DMSO. Control animals were treated with the vehicle alone. Animals were monitored each day and sacrificed when the limit points were reached.

The test system of data set [3] is Huh7 cells. Briefly: Host cell viability (cell confluency, AlamarBlue) in the hepatic infection assay. The data set is classed as cell-based, human. To be noted: at the tested concentrations (up to 500 nM). As for the experimental part:
Liver stage. The action of JF363 against the liver stage of P. berghei infection was assessed by bioluminescence, as previously described. Briefly, one day before infection, Huh7 cells were seeded in 96-well plates. JF363 stock solution was prepared in dimethyl sulfoxide (DMSO) and serially diluted in infection medium (culture medium supplemented with 50 µg/mL of gentamicin and 0.8 µg/mL of fungizone) to obtain the test concentrations (1, 10, 25, 50, […], 500 nM). These were added to the cells and incubated for 1 h at 37 °C and 5% CO2, after which 1 × 10^4 sporozoites were added to the wells. Plates were centrifuged at 1800× g for 5 min and incubated at 37 °C with 5% CO2 for the assay duration. At 46 h post-infection, the impact of the compound on cell viability was assessed by the AlamarBlue assay (Invitrogen, Carlsbad, CA, USA), following the manufacturer’s instructions. Following the manufacturer’s instructions, the drug’s effect on the parasite load was next evaluated using the Firefly Luciferase Assay Kit 2.0 (Biotium, Fremont, CA, USA). For IC50 determination, nonlinear regression analysis was employed to fit the normalized results of the dose–response curves, using GraphPad Prism 8 (Prism 4 for Mac OS X, version 5.0b, San Diego, CA, USA).
(The colour change of resazurin is a common sign of viable cells or microbes.)

As for `COc1cccc(CC(=O)Nc2ccc(C(=O)NO)cc2)c1` [JF363], the IC50 (in general, the concentration at which inhibition is half-maximal) is 98.9 ± 22.7 nM in data set [1] (Pb hepatic infection, Huh7 cells, 46 h post-infection) and around 100 nM in data set [1] (hepatic stage of Plasmodium infection (discussion)). Besides, the “mouse survival, by day” value in data set [2] (40 mg/kg oral) came out at 11 days; in data set [2] (160 mg/kg oral), 14 days. Further, in data set [2] (40 mg/kg oral, lethal dose of RH strain), the “increase of mouse survival” value is listed as “two days”. The “toxicity towards the hepatic host cells (cell confluency)” value in data set [3] is reported as “did not present toxicity”.
